Results: PubChem BioAssay AID1358 (Sanford-Burnham Center for Chemical Genomics, 2008)
Active and inactive are the calls of the source.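 The calls were made as follows: active = no phosphorylated p38 MAPK band on western blot after an ER stress trigger, matching the untreated control; inactive = the rest.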

The molecules below were run on CSM14.1 cells, thapsigargin, phospho-p38 Western blot (assay: p38 MAPK activation blockade under ER stress – CSM14.1 cells, thapsigargin, Western blot, mechanism study for ER stress cell death project, late-stage follow-up (AID 1358)).

Structure (SMILES) | outcome
COc1ccc(C2CC(=O)C3=C(C2)Nc2ccccc2NC3c2ccccc2C(F)(F)F)cc1OC (stereo unspecified) | active
COc1ccc(C2CC(=O)C3=C(C2)Nc2ccccc2NC3c2cccc(Br)c2)cc1OC (stereo unspecified) | active
COc1ccc(C2CC(=O)C3=C(C2)Nc2ccccc2NC3c2cccc(Oc3ccccc3)c2)cc1OC (stereo unspecified) | active
CCOc1cc(C2Nc3ccccc3NC3=C2C(=O)CC(c2ccc(OC)cc2)C3)cc(Cl)c1O (stereo unspecified) | active
CC1(C)CC(=O)C2=C(C1)Nc1ccccc1NC2c1ccc(-c2ccccc2)cc1 (stereo unspecified) | active
CSc1ccc(C2Nc3ccccc3NC3=C2C(=O)CC(c2ccccc2)C3)cc1 (stereo unspecified) | active
COc1ccc(C2CC(=O)C3=C(C2)Nc2ccccc2NC3c2cc(C)ccc2C)cc1 (stereo unspecified) | active
COc1ccc(C2CC(=O)C3=C(C2)Nc2ccccc2NC3c2cccc(C(F)(F)F)c2)cc1OC (stereo unspecified) | active
CCCOc1ccc(C2Nc3ccccc3NC3=C2C(=O)CC(c2ccc(OC)c(OC)c2)C3)cc1 (stereo unspecified) | active
O=C1CC(c2ccccc2)CC2=C1C(c1c(F)cccc1Cl)Nc1ccccc1N2 (stereo unspecified) | active
CCOc1cccc(C2Nc3ccccc3NC3=C2C(=O)CC(c2ccc(OC)cc2)C3)c1 (stereo unspecified) | active
